Test: xn = mol fraction of the nth substance listed
Conditions: Liquid, Static

CCCCCC[n+]1ccn(C)c1.O=S(=O)([N-]S(=O)(=O)C(F)(F)F)C(F)(F)F + O=C=O
Conditions	molar volume [m3/mol]
298.15 K, 2015 kPa, x2 = 0.396	0.0002205
298.15 K, 3586 kPa, x2 = 0.592	0.000163
298.15 K, 6489 kPa, x2 = 0.762	0.0001127
298.15 K, 8967 kPa, x2 = 0.8	9.883e-05
298.15 K, 10321 kPa, x2 = 0.81	9.556e-05
298.15 K, 11969 kPa, x2 = 0.819	9.198e-05
298.15 K, 13525 kPa, x2 = 0.822	9.084e-05
298.15 K, 14804 kPa, x2 = 0.823	9.095e-05
323.15 K, 800 kPa, x2 = 0.139	0.0003082
323.15 K, 3716 kPa, x2 = 0.487	0.0002013
323.15 K, 5430 kPa, x2 = 0.583	0.0001725
323.15 K, 6560 kPa, x2 = 0.637	0.0001568
323.15 K, 8039 kPa, x2 = 0.692	0.0001395
323.15 K, 9078 kPa, x2 = 0.726	0.0001282
323.15 K, 9969 kPa, x2 = 0.751	0.000118
323.15 K, 11081 kPa, x2 = 0.769	0.0001108
323.15 K, 12224 kPa, x2 = 0.774	0.0001094
323.15 K, 12959 kPa, x2 = 0.779	0.0001079
343.15 K, 1793 kPa, x2 = 0.14	0.0003081
343.15 K, 2754 kPa, x2 = 0.239	0.0002782
343.15 K, 5537 kPa, x2 = 0.436	0.0002194
343.15 K, 8861 kPa, x2 = 0.596	0.0001701
343.15 K, 11560 kPa, x2 = 0.673	0.0001447
343.15 K, 14469 kPa, x2 = 0.721	0.0001282
343.15 K, 19818 kPa, x2 = 0.755	0.0001169
343.15 K, 24708 kPa, x2 = 0.771	0.0001115

CCCCCCCCCCn1cc[n+](C)c1.O=S(=O)([N-]S(=O)(=O)C(F)(F)F)C(F)(F)F + O=C=O
Conditions	molar volume [m3/mol]
298.15 K, 1474 kPa, x2 = 0.35	0.0002775
298.15 K, 2828 kPa, x2 = 0.562	0.0001997
298.15 K, 4516 kPa, x2 = 0.709	0.000147
298.15 K, 6799 kPa, x2 = 0.81	0.0001111
298.15 K, 8659 kPa, x2 = 0.83	0.0001006
298.15 K, 10909 kPa, x2 = 0.841	9.556e-05
298.15 K, 12873 kPa, x2 = 0.848	9.235e-05
298.15 K, 14847 kPa, x2 = 0.849	9.169e-05
323.15 K, 1439 kPa, x2 = 0.257	0.0003212
323.15 K, 3371 kPa, x2 = 0.489	0.0002347
323.15 K, 6891 kPa, x2 = 0.696	0.0001569
323.15 K, 8581 kPa, x2 = 0.752	0.0001354
323.15 K, 10917 kPa, x2 = 0.8	0.0001145
323.15 K, 13030 kPa, x2 = 0.814	0.0001086
323.15 K, 14596 kPa, x2 = 0.819	0.0001071
343.15 K, 2003 kPa, x2 = 0.302	0.0003089
343.15 K, 3941 kPa, x2 = 0.475	0.0002428
343.15 K, 6242 kPa, x2 = 0.587	0.0002017
343.15 K, 8674 kPa, x2 = 0.683	0.000164
343.15 K, 10773 kPa, x2 = 0.744	0.0001384
343.15 K, 12515 kPa, x2 = 0.776	0.0001249
343.15 K, 14534 kPa, x2 = 0.801	0.000113

CCn1cc[n+](C)c1.O=S(=O)([N-]S(=O)(=O)C(F)(F)F)C(F)(F)F + O=C=O
Conditions	molar volume [m3/mol]
298.15 K, 1235 kPa, x2 = 0.28	0.000204
298.15 K, 3254 kPa, x2 = 0.533	0.0001415
298.15 K, 6471 kPa, x2 = 0.747	9.622e-05
298.15 K, 10194 kPa, x2 = 0.767	9.034e-05
298.15 K, 11608 kPa, x2 = 0.777	8.747e-05
298.15 K, 13084 kPa, x2 = 0.781	8.646e-05
298.15 K, 14794 kPa, x2 = 0.782	8.625e-05
323.15 K, 2005 kPa, x2 = 0.302	0.0002021
323.15 K, 4250 kPa, x2 = 0.483	0.0001607
323.15 K, 6213 kPa, x2 = 0.587	0.0001367
323.15 K, 8156 kPa, x2 = 0.657	0.0001197
323.15 K, 10081 kPa, x2 = 0.711	0.0001049
323.15 K, 12307 kPa, x2 = 0.743	9.597e-05
323.15 K, 14625 kPa, x2 = 0.749	9.492e-05
343.15 K, 2182 kPa, x2 = 0.247	0.0002186
343.15 K, 4070 kPa, x2 = 0.416	0.0001777
343.15 K, 6063 kPa, x2 = 0.509	0.0001559
343.15 K, 7999 kPa, x2 = 0.579	0.0001394
343.15 K, 9938 kPa, x2 = 0.636	0.0001249
343.15 K, 12143 kPa, x2 = 0.684	0.0001117
343.15 K, 14682 kPa, x2 = 0.709	0.0001056

Source: the NIST ThermoML archive (doi:10.1016/j.jct.2009.08.018)
